According to paper PMC9873280, “In silico identification and biological evaluation of a selective MAP4K4 inhibitor against pancreatic cancer” (Journal of Enzyme Inhibition and Medicinal Chemistry, 2023):

The molecules below were run against T1, MAP4K7 (Homo sapiens, UniProt Q9UKE5) (assay: kinase profiling panel). Settings: read-out: % inhibition at 150 nM.
T1 construct: gene TNIK; recombinant kinase of a commercial 81-kinase panel
Format: biochemical

T1 sequence (Q9UKE5 whole entry): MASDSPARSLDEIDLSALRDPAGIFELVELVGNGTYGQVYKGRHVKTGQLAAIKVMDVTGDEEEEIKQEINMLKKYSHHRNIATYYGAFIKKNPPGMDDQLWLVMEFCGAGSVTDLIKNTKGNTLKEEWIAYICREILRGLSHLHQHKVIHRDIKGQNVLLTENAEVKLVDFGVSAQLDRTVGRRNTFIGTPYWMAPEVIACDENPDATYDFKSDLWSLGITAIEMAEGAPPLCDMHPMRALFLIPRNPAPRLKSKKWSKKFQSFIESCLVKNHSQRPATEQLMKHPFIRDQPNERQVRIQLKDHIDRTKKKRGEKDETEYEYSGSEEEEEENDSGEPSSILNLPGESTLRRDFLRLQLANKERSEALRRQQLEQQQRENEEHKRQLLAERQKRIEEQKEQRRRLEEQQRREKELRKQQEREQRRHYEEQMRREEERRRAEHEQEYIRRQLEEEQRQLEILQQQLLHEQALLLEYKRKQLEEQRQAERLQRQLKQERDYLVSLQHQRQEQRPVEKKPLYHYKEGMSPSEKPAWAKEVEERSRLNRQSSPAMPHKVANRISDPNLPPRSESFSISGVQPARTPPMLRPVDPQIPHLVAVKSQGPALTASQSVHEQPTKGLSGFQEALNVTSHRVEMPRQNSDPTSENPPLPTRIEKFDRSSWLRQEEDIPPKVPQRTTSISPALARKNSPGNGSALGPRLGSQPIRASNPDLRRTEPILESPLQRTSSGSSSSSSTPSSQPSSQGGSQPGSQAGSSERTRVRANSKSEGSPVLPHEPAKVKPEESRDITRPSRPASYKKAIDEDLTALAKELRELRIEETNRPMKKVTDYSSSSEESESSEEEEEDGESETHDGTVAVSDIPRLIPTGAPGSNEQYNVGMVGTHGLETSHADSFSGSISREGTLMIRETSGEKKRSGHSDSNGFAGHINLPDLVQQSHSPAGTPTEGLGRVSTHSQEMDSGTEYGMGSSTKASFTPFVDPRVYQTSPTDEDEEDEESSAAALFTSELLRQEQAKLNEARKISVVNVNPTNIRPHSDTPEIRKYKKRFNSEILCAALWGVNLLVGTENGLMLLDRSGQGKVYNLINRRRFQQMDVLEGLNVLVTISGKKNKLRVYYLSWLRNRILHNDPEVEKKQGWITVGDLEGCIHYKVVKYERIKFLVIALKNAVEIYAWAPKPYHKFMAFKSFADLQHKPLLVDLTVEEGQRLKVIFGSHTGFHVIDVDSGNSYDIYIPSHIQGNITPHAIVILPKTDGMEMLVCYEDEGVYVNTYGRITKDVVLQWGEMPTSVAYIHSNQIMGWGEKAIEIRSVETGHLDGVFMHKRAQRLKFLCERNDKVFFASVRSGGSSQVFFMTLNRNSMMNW

SMILES	inhibition at 0.15 µM
CSc1ccc(CNC(=O)c2ccc3c(c2)NC(=O)C(=Cc2cccc(Cl)c2)O3)cc1 [F389-0746]	27%

These molecules were tested against T2, MAP4K4 (Homo sapiens, UniProt O95819) (assay: Z'LYTE kinase activity assay). Settings: 1 h incubation with ATP.
T2 construct: recombinant kinase of the ThermoFisher SelectScreen service
Format: biochemical

T2 sequence (O95819 2-1239): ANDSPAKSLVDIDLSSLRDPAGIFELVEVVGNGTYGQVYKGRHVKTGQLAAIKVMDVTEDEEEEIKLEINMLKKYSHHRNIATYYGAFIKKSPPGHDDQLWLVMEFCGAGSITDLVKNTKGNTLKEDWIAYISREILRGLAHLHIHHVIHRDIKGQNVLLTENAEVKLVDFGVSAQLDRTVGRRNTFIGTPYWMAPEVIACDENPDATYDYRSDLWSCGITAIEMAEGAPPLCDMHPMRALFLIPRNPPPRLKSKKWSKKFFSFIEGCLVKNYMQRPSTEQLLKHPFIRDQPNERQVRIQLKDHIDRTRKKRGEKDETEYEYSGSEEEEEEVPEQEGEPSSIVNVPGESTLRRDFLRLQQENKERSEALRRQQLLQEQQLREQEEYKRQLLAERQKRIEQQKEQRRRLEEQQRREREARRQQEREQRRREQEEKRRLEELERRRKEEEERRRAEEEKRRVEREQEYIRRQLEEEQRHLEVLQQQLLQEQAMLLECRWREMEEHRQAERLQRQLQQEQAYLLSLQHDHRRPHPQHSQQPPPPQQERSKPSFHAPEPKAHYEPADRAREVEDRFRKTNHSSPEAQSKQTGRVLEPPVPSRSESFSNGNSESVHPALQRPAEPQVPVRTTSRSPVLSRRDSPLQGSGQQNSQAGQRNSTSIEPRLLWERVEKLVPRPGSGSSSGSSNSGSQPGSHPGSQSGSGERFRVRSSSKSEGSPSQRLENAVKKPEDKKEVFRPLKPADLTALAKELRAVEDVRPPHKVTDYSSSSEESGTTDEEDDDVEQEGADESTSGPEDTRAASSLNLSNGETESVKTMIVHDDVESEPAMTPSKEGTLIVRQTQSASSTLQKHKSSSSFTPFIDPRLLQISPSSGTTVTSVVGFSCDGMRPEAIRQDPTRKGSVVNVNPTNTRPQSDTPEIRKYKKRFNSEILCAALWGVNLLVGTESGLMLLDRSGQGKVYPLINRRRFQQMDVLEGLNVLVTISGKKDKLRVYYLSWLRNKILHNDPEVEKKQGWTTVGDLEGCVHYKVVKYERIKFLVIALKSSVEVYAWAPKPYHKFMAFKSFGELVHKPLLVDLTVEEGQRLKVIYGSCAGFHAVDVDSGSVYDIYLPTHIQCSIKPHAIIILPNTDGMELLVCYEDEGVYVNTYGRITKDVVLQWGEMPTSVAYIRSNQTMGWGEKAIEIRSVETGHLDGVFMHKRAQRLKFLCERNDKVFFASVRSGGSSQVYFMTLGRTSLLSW

SMILES	IC50
CSc1ccc(CNC(=O)c2ccc3c(c2)NC(=O)C(=Cc2cccc(Cl)c2)O3)cc1 [F389-0746]	121 nM
O=C1Nc2cc(C(=O)NCc3cccc(F)c3)ccc2OC1=Cc1ccc(Cl)cc1 [F389-0183]	334 nM
COc1ccc(CCNC(=O)c2ccc3c(c2)NC(=O)C(=Cc2cccc(Cl)c2)O3)cc1OC [F389-0604]	189 nM
CCOc1ccc(CNC(=O)c2ccc3c(c2)NC(=O)C(=Cc2ccc(Cl)cc2)O3)cc1OC [F389-0169]	337 nM
CN1CCN(CCNC(=O)c2ccc3c(c2)NC(=O)C(=Cc2ccc(Cl)cc2)O3)CC1 [F389-0167]	276 nM
CCOc1ccc(CNC(=O)c2ccc3c(c2)NC(=O)C(=Cc2cccc(Cl)c2)O3)cc1OC [F389-0745]	384 nM

Each molecule was assayed against T3, MAP4K6 (Homo sapiens, UniProt Q8N4C8) (assay: kinase profiling panel). Settings: read-out: % inhibition at 150 nM.
T3 construct: gene MINK1; recombinant kinase of a commercial 81-kinase panel
Format: biochemical

T3 sequence (Q8N4C8 whole entry): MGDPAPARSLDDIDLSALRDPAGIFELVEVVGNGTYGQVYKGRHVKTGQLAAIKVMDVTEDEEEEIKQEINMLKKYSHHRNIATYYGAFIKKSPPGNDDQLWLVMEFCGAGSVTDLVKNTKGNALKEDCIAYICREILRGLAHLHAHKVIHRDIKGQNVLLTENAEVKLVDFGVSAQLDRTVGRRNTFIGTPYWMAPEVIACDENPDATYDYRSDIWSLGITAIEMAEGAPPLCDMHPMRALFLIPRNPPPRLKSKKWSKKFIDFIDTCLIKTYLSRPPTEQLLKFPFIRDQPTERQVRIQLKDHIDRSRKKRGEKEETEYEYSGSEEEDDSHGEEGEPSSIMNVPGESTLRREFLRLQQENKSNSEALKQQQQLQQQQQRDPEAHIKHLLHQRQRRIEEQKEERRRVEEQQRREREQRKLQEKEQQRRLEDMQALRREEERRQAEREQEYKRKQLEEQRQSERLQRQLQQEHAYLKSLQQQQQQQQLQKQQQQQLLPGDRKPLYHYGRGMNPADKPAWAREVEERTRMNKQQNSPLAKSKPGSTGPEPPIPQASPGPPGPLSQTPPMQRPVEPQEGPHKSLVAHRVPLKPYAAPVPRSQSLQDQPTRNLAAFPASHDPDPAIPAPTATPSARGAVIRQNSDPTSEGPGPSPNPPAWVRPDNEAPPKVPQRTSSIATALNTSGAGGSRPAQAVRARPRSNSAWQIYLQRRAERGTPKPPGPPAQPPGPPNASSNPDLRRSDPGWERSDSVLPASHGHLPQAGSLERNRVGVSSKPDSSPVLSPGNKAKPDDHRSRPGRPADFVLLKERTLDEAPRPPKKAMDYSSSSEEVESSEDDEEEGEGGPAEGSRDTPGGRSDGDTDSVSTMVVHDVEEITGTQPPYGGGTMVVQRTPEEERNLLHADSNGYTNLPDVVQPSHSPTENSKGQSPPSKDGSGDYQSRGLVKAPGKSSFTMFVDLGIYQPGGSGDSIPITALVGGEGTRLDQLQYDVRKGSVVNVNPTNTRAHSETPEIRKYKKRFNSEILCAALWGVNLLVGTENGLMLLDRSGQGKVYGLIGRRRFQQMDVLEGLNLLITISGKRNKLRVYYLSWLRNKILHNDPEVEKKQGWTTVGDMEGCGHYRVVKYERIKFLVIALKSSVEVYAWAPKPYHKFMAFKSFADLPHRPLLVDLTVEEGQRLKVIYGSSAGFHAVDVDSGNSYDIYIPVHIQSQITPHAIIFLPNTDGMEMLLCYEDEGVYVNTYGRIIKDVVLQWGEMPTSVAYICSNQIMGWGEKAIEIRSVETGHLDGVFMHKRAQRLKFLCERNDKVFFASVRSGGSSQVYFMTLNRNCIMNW

SMILES	inhibition at 0.15 µM
CSc1ccc(CNC(=O)c2ccc3c(c2)NC(=O)C(=Cc2cccc(Cl)c2)O3)cc1 [F389-0746]	44%

The molecules below were run against T4, MAP4K5 (Homo sapiens, UniProt Q9Y4K4) (assay: kinase profiling panel). Settings: read-out: % inhibition at 150 nM.
T4 construct: recombinant kinase of a commercial 81-kinase panel
Format: biochemical

T4 sequence (Q9Y4K4 whole entry): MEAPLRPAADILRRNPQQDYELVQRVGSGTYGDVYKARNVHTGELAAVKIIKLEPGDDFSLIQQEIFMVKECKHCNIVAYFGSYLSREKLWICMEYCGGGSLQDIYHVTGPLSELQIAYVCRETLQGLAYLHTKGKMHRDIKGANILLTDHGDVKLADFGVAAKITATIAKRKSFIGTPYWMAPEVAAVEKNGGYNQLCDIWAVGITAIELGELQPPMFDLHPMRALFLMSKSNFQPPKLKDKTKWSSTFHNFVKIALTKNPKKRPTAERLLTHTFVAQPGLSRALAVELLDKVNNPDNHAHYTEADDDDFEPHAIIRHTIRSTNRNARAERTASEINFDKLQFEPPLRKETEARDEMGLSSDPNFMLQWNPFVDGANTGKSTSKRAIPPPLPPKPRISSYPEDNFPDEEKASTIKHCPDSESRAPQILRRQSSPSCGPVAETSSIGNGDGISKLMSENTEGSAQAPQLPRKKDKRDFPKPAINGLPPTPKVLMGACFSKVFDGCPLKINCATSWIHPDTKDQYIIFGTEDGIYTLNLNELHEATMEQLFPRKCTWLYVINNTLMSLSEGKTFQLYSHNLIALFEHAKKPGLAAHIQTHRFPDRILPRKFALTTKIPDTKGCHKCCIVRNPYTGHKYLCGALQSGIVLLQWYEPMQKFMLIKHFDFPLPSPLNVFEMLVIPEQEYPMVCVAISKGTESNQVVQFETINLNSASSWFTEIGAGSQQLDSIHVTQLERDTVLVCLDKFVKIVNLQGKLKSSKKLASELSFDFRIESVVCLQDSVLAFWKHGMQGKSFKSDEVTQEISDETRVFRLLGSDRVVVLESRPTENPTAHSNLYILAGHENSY

SMILES	inhibition at 0.15 µM
CSc1ccc(CNC(=O)c2ccc3c(c2)NC(=O)C(=Cc2cccc(Cl)c2)O3)cc1 [F389-0746]	17%

These molecules were tested against T2, MAP4K4 (assay: Z'LYTE kinase activity assay). Settings: not given.
Format: biochemical
Text: Z'LYTE kinase activity assay on MAP4K4

SMILES	inhibition at 1 µM
COc1cccc(CNC(=O)c2ccc3c(c2)NC(=O)C(=Cc2cccc(Cl)c2)O3)c1 [F389-0669]	59%
CCOc1ccc(CNC(=O)c2ccc3c(c2)NC(=O)C(=Cc2cccc(Cl)c2)O3)cc1 [F389-0750]	67%
COc1ccccc1CNC(=O)c1ccc2c(c1)NC(=O)C(=Cc1ccc(Cl)cc1)O2 [F389-0092]	68%
CCOc1ccccc1CNC(=O)c1ccc2c(c1)NC(=O)C(=Cc1cccc(Cl)c1)O2 [F389-0738]	57%
CCOc1cc(CNC(=O)c2ccc3c(c2)NC(=O)C(=Cc2ccc(Cl)cc2)O3)ccc1OC [F389-0164]	67%
O=C1Nc2cc(C(=O)NCc3cccc(F)c3)ccc2OC1=Cc1cccc(Cl)c1 [F389-0759]	61%
O=C1Nc2cc(C(=O)NCc3ccccc3F)ccc2OC1=Cc1ccc(Cl)cc1 [F389-0161]	72%
COc1cccc(CNC(=O)c2ccc3c(c2)NC(=O)C(=Cc2ccc(Cl)cc2)O3)c1 [F389-0093]	70%
O=C1Nc2cc(C(=O)NCc3ccccc3Cl)ccc2OC1=Cc1cccc(Cl)c1 [F389-0592]	57%
